We go through 15 molecules from US6943194B1, “Synthesis of phenstatin and prodrugs thereof” (Arizona Board of Regents, acting for and on behalf of …, priority 1998, dated 2005).

SMILES strings stand for the structures. Like-named read-outs stand apart in the source and are kept apart here.

For orientation: IC50 means the point on the concentration scale where inhibition reaches its midpoint. A word on the GI50: it is the concentration at which growth is held to half of that of the control. The term solubility denotes how much of the substance goes into solution per volume. The melting point is the temperature of the solid-liquid transition.

The subject of series [1] is bovine brain tubulin. Briefly: Inhibition of tubulin polymerization. The class given is biochemical. The note with it: for IC50: 10 μM tubulin, extent of assembly after 20 min at 30° C., read-out: Inhibition of tubulin polymerization IC50, μM ± SD; for activity against tubulin / in inhibiting assembly (in words): purified tubulin. The method, then: Electrophoretically homogeneous bovine brain tubulin was purified from bovine brain as described previously (Hamel, et al., Separation of active tubulin and microtubule-associated proteins by ultracentrifugation and isolation of a component causing the formation of microtubule bundles, Biochemistry 1984, 23, 4173-4184). Reaction mixtures (0.24 mL during preincubation, 0.25 mL during incubation, with all concentrations referring to the final volume) contained 0.8 M monosodium glutamate (taken from 2.0 M stock solution adjusted to pH 6.6 with Hcl), 1.0 mg/mL (10 μM) tubulin, 4% (v/v) dimethyl sulfoxide, and varying concentrations of drug. Samples were incubated for 15 min at 30° C. and chilled on ice. GTP, required for polymerization, was added in 10 μL to a final concentration of 0.4 mM. Samples were transferred to cuvettes held at 0° C. by electronic temperature controllers in GILFORD model 250 recording spectrophotometers. Baselines were established, and the reaction was initiated by a jump (approximately 1 min) to 30° C. Extent of assembly after 20 min was the parameter used to determine IC50 values. […] In most experiments, four spectrophotometers were used, with two control reaction mixtures.

The subject of series [2] is tubulin. Briefly: Inhibition of [3H]colchicine binding to tubulin. Set-up: species or system bovine. The settings on record: for Inhibition of colchicine binding % inhibition: 1.0 μM tubulin, 5.0 μM [3H]colchicine, 5.0 μM inhibitor, 10 min at 37° C. The method, then: Reaction mixtures contained 0.1 mg/mL (1.0 μM) tubulin, 5.0 μM [3H]colchicine, and 5.0 μM inhibitor and were incubated for 10 min at 37° C.

In series [3] the test system is NCI 60 Cell-Line Human Tumor Screen. The series is described as follows: NCI 60 cell-line human tumor screen. The format is cell-based. The note with it: read-out: Mean Panel GI50 (±S.D). An excerpt: (§1) Compounds 3b, 3d, 1d, and 4a-f were comparatively evaluated in the NCI 60 cell-line human tumor screen (Boyd, Status of the NCI preclinical antitumor drug discovery screen. Implications for selection of new agents for clinical trial, CANCER: Principles and Practices of Oncology Updates, DeVita, et al. (Eds.), Lippincott: Philadelphia, 1989; Vol. 10, No. 3, pp. 1-12; Boyd, The Future of New Drug Development. Section I. Introduction to Cancer Therapy, Current Therapy in Oncology, Niederhuber, (Ed.), B. C. Decker, Inc.: Philadelphia, 1993; pp. 11-22; Boyd, et al., Data display and analysis strategies from NCI disease-oriented in vitro antitumor drug screen. In Cytotoxic Anticancer Drugs: Models and Concepts for Drug Discovery and Development, Valeriote, et al. (Eds.), Kluwer Academic Publishers: Amsterdam, 1992; pp. 11-34; Stinson, et al., Morphological and Immunocytochemical Characteristics of Human Tumor Cell Lines for Use in a Disease-Oriented Anticancer Drug Screen, Anticancer Res. 1992, 12,-1035-1054; Boyd, et al., Some Practical Considerations and Applications of the NCI in vitro Drug Discovery Screen, Drug Dev. Res. 1995, 34, 91-109).

Series [4] deals with P388 Lymphocytic Leukemia Cell Line. The series is described as follows: Murine P388 lymphocytic leukemia cell line growth inhibition. The class given is cell-based.
In series [5] the test system is OVCAR-3. The series is described as follows: Human cancer cell growth inhibition, ovarian OVCAR-3. The format is cell-based.
For series [6], the system named is SF-295. Briefly: Human cancer cell growth inhibition, CNS SF-295. The class given is cell-based.
Series [7] concerns A498. Briefly: Human cancer cell growth inhibition, renal A498. The format is cell-based.
In series [8] the test system is NCI-H460. Briefly: Human cancer cell growth inhibition, lung-NSC NCI-H460. The class given is cell-based.
For series [9], the system named is KM20L2. The series is described as follows: Human cancer cell growth inhibition, colon KM20L2. The class given is cell-based.
The test system of series [10] is SK-MEL-5. The series is described as follows: Human cancer cell growth inhibition, melanoma SK-MEL-5. The format is cell-based.
Series [11] is described as follows: Solubility in distilled water. The format is physicochemical. The note with it: distilled water at 25° C. The method, then: The deprotected phosphate (0.44 g, 1.10 mmol) was dissolved in anhydrous methanol (15 mL) and sodium methoxide ([…], 2.20 mmol) was added at room temperature. The cloudy solution was stirred for 20 hours and the reaction mixture was concentrated to a white solid that was washed with 2-propanol and recrystallized (3×) from water-acetone. The phenstatin prodrug (3d, 0.38g, 78% yield) was collected by filtration and found to give; LRFAB m/z 443.02 (M+H+), calculated 443.048, EIMS m/z (peak height) 318 (100%, M+—PO3Na2+H), 303 (12%), 195 (20%), 151 (23%); ^1H-NMR (D2O) δH 7.644 (1H, t, J2/61.8 Hz, H-2), 7.366 (1H, dd, J6/2 1.8 Hz, J6/58.5 Hz, H-6), 7.006 (1H, d, J5/6 8.5 Hz, H-5), 6.933 (2H, s, H-2′, 6′), 3.844 (3H, s, 4′-OCH3), 3.748 (6H, s, 3′, 5′-OCH3) 3.734 (3H, s, 4OCH3); ^13C-NMR (D2O, reference to CDCl3) δC 193.5 (C═O), 151.1; and ^31P-NMR (D2O, decoupled, […]) δP −1.965.

Series [12] deals with CNS U251. The series is described as follows: Human cancer cell line inhibition, CNS U251. The format is cell-based. The settings on record: U-251.
Source text: as §1

Series [13] concerns pharynx FADU. Briefly: Human cancer cell line inhibition, pharynx FADU. The class given is cell-based.
Source text: as §1

The subject of series [14] is prostate DU-145. Briefly: Human cancer cell line inhibition, prostate DU-145. The format is cell-based.
Source text: as §1

Setting [15] is: Homo sapiens, mean over NCI 60 cell-line panel, tested in triplicate.
Where [16] appears, read: mean over NCI 60 cell-line panel, tested in triplicate.

With `COc1ccc(CCc2cc(OC)c(OC)c(OC)c2)cc1` [Compound 8b, reference compound], the IC50 in series [1] stood at 3.2 ± 0.3 µM. In series [2], the “Inhibition of colchicine binding % inhibition” value was 54%.
On to `COc1ccc(C=Cc2cc(OC)c(OC)c(OC)c2)cc1` [Compound 1e, reference compound], for which the IC50 in series [1] stood at 1.3 ± 0.2 µM. For the same molecule, the “Inhibition of colchicine binding % inhibition” value in [2] is given as 97%.
Regarding `COc1ccc(/C=C\c2cc(OC)c(OC)c(OC)c2)cc1O` [Compound 1b, combretastatin A-4, reference compound], the “Inhibition of colchicine binding % inhibition” value in series [2] was 97%.
As to `COc1ccc(C(=O)c2cc(OC)c(OC)c(OC)c2)cc1OC` [Compound 4c, 3,3′,4,4′,5-pentamethoxybenzophenone], the GI50 in series [3] (setting [15]) came to 5.11 µM. Moreover, the IC50 in series [1] is 15 ± 2 µM. Moreover, the “Inhibition of colchicine binding % inhibition” value in series [2] is 1%.
Regarding `COc1ccc(C(=O)c2cc(OC)c(OC)c(OC)c2)cc1OP(=O)([O-])[O-].[Na+].[Na+]` [Compound 3d, Disodium Phenstatin 3-O-phosphate], the GI50 in [3] (setting [16]) is 0.0733 µM; in series [4] it was under 0.001 µg/mL; in series [5] it was 0.0025 µg/mL; in series [6], 0.012 µg/mL; in [7] it was 0.05 µg/mL; in series [8], 0.035 µg/mL. For the same molecule, the 50% growth inhibitory concentration (GI50) in [9] was found to be 0.27 µg/mL; in series [10] it was 0.0047 µg/mL. Besides, the IC50 in [1] is 21 ± 3 µM. Besides, in [1], the “activity against tubulin / in inhibiting assembly (in words)” value is “weak activity”. Also, in [2], the “activity as an inhibitor of colchicine binding (in words)” value is recorded as “moderate activity”. The “Inhibition of colchicine binding % inhibition” value in [2] worked out at 37%. The “activity relative to phenstatin in colchicine binding assay” value in series [2] (relative to phenstatin 3b) was “about 40%”. The molecule further came in with a solubility in [11] of 30 mg/mL.
On to `COc1cc(C(=O)c2ccc3c(c2)OCO3)cc(OC)c1OC` [Compound 4a, 3,4,5-trimethoxy-3′,4′-methylenedioxybenzophenone], for which the melting point fell in the range of 124 to 125 °C. Also, in series [3] (setting [15]), the concentration for 50% growth inhibition (GI50) is 2.7 µM. In [1], the IC50 was 15 ± 2 µM and the “activity against tubulin / in inhibiting assembly (in words)” value is given as “only weak activity”. Also, in [2], the “Inhibition of colchicine binding % inhibition” value is 0%.
For `COc1cc(C(=O)c2cc(F)cc(F)c2)cc(OC)c1OC` [Compound 4f, 3,5-difluoro-3′,4′,5′-trimethoxybenzophenone], the melting point was 121 to 123 °C. Moreover, in series [3] (Homo sapiens), the GI50 was 4.94 µM. For the same molecule, in [1], the IC50 was determined as 39 ± 7 µM and the “activity against tubulin / in inhibiting assembly (in words)” value is “almost inert”. In addition, the “Inhibition of colchicine binding % inhibition” value in series [2] was determined as 0%.
Regarding `COc1ccc(C(=O)c2cc(OC)c(OC)c(OC)c2)cc1OC(C)=O` [Compound 3e, Phenstatin Acetate], the melting point was 164 to 165 °C. Besides, in series [12], it took 0.0039 µg/mL to inhibit growth by half (GI50). Also, the G50 in series [13] was determined as 0.0055 µg/mL. Further, growth in series [14] was halved (GI50) at 0.0029 µg/mL. Besides, the IC50 in [1] amounted to 3.5 ± 0.5 µM. The “Inhibition of colchicine binding % inhibition” value in series [2] turned out to be 71%.
Consider `COc1cc(OC)cc(C(=O)c2cc(OC)c(OC)c(OC)c2)c1` [Compound 4d, 3,3′,4,5,5′-pentamethoxybenzophenone], for which the melting point is 121 to 122 °C. For the same molecule, the GI50 in series [3] (Homo sapiens) is 0.543 µM. The IC50 in [1] was 3.6 ± 0.8 µM. For the same molecule, the “fold less potent than phenstatin in inhibiting tubulin polymerization” value in [1] (relative to phenstatin 3b) was 3-4 fold. In addition, the “Inhibition of colchicine binding % inhibition” value in [2] turned out to be 58%.
With `COc1ccc(/C=C\c2cc(OC)c(OC)c(OC)c2)cc1OP(=O)([O-])[O-].[Na+].[Na+]` [Compound 1d, combretastatin A4 sodium phosphate, reference compound], the concentration for 50% growth inhibition (GI50) in series [3] (setting [16]) amounted to 0.0128 µM; in series [4], 0.0004 µg/mL; in series [5] it was 0.023 µg/mL; in series [6], 0.036 µg/mL; in [7] it was 0.041 µg/mL; in series [8] it was 0.029 µg/mL. The GI50 in series [9] was 0.34 µg/mL; in series [10], 0.041 µg/mL. Further, the concentration for half-maximal inhibition (IC50) in [1] is over 80 µM. Besides, the “activity against tubulin / in inhibiting assembly (in words)” value in [1] is “totally inactive”. The “Inhibition of colchicine binding % inhibition” value in series [2] is on record as 4%.
As to `COc1ccc(Cc2cc(OC)c(OC)c(OC)c2)cc1O` [Compound 7a, reference compound], the half-maximal inhibitory concentration (IC50) in series [1] was determined as 3.3 ± 0.5 µM. For the same molecule, the “Inhibition of colchicine binding % inhibition” value in series [2] was found to be 65%.
As to `COc1cc(C(=O)c2cc(Cl)cc(Cl)c2)cc(OC)c1OC` [Compound 4e, 3,5-dichloro-3′,4′,5′-trimethoxybenzophenone], the melting point lay within 131 to 132 °C. The GI50 in series [3] (setting [15]) came out at 5.12 µM. Also, the “activity against tubulin / in inhibiting assembly (in words)” value in series [1] is reported as “almost inert”.
Take `COc1ccc(CCc2cc(OC)c(OC)c(OC)c2)cc1O` [Compound 8a, reference compound]: the IC50 in series [1] stood at 2.1 ± 0.3 µM. Besides, the “Inhibition of colchicine binding % inhibition” value in [2] is reported as 77%.
For `COc1cc(C(=O)c2cc(C)cc(C)c2)cc(OC)c1OC` [Compound 4b, 3,4,5-trimethoxy-3′,5′-dimethylbenzophenone], the melting point is 104 to 105 °C. The GI50 in series [3] (setting [15]) came to 3.48 µM. Moreover, the IC50 in series [1] amounted to 11 ± 2 µM. In addition, the “further fold drop in activity against tubulin” value in [1] (relative to 4d) was determined as 3 fold. Besides, the “Inhibition of colchicine binding % inhibition” value in [2] is 7%.
Regarding `COc1ccc(Cc2cc(OC)c(OC)c(OC)c2)cc1` [Compound 7b, reference compound], the 50% inhibitory concentration (IC50) in [1] came out at 4.4 ± 0.2 µM. Besides, the “Inhibition of colchicine binding % inhibition” value in series [2] came out at 56%.
